# Calls of active or inactive are those of the source. No cut-off for these calls is given here.
# Columns and labels:
# [1] = system: RG2; experiment: Induction of cell cycle arrest in rat RG2 cells assessed as accumulation at G0/G1 phase at 206 uM after 48 hrs by propidium iodide staining based flow cytometric analysis (reference value: 57.81 +/- 1.9%); type: functional
# [2] = system: DBTRG-05MG; experiment: Induction of cell cycle arrest in human DBTRG-05MG cells assessed as accumulation at G0/G1 phase at 206 uM after 24 hrs by propidium iodide staining based flow cytometric analysis (reference value: 47.16 +/- 1.55%); type: functional
# [3] = system: RG2; experiment: Induction of cell cycle arrest in rat RG2 cells assessed as p21 expression at 206 uM after 48 hrs by Western blot analysis (reference value: 1); type: functional
# [4] = Effect on ERK expression in human DBTRG-05MG cells at 206 uM after 48 hrs by Western blot analysis (reference value: 1); type: functional
# [5] = system: DBTRG-05MG; experiment: Induction of apoptosis in human DBTRG-05MG cells assessed as increase in chromatin condensation at 206 uM after 48 hrs by TUNEL assay; type: functional, cell-based
# [6] = Effect on AKT expression in human DBTRG-05MG cells at 206 uM after 48 hrs by Western blot analysis (reference value: 1); type: functional
# [7] = system: DBTRG-05MG; experiment: Induction of DNA damage in human DBTRG-05MG cells assessed as Chk2 phosphorylation at Thr68 residues at 206 uM after 48 hrs by Western blot analysis (reference value: 1); type: functional
# [8] = system: DBTRG-05MG; experiment: Induction of apoptosis in human DBTRG-05MG cells assessed as phosphorylated caspace-9 expression at 206 uM after 48 hrs by Western blot analysis (reference value: 1); type: functional
# [9] = system: DBTRG-05MG; experiment: Induction of apoptosis in human DBTRG-05MG cells assessed as phosphorylated caspace-3 expression at 112.4 uM after 48 hrs by Western blot analysis (reference value: 1); type: functional
# [10] = Synergistic cytotoxicity against rat CTX TNA2 cells assessed as combination index at 89.9 uM after 48 hrs in presence of 412.1 uM TMZ by MTT assay; type: cell-based; settings: ctx tna2, 48 h
# [11] = Synergistic cytotoxicity against rat CTX TNA2 cells assessed as synergistic effect index at 134.9 uM after 48 hrs in presence of 103 uM TMZ by MTT assay; type: cell-based; settings: ctx tna2, 48 h
# [12] = system: DBTRG-05MG; experiment: Synergistic cytotoxicity against human DBTRG-05MG cells assessed as combination index at 89.9 uM after 48 hrs in presence of 515.1 uM TMZ by MTT assay; type: functional
# [13] = system: DBTRG-05MG; experiment: Induction of cell cycle arrest in human DBTRG-05MG cells assessed as CyclinA expression at 112.4 uM after 48 hrs in presence of TMZ by Western blot analysis (reference value: 1); type: functional
# [14] = system: RG2; experiment: Induction of cell cycle arrest in rat RG2 cells assessed as p21 expression at 112.4 uM after 48 hrs in presence of TMZ by Western blot analysis (reference value: 1); type: functional
# [15] = Synergistic cytotoxicity against rat CTX TNA2 cells assessed as synergistic effect index at 89.9 uM after 48 hrs in presence of 412.1 uM TMZ by MTT assay; type: cell-based; settings: ctx tna2, 48 h
# [16] = system: DBTRG-05MG; experiment: Synergistic cytotoxicity against human DBTRG-05MG cells assessed as combination index at 112.4 uM after 48 hrs in presence of 309 uM TMZ by MTT assay; type: functional
# [17] = system: RG2; experiment: Induction of DNA damage in rat RG2 cells assessed as ATM phosphorylation at ser1981 residues at 112.4 uM after 48 hrs by Western blot analysis (reference value: 1); type: functional
# [18] = system: DBTRG-05MG; experiment: Induction of cell cycle arrest in human DBTRG-05MG cells assessed as p53 expression at 112.4 uM after 48 hrs by Western blot analysis (reference value: 1); type: functional
# [19] = system: RG2; experiment: Induction of cell cycle arrest in rat RG2 cells assessed as accumulation at G2/M phase at 112.4 uM after 12 hrs in presence of TMZ by propidium iodide staining based flow cytometric analysis (reference value: 20.04 +/- 0.55%); type: functional
# [20] = system: RG2; experiment: Induction of DNA damage in rat RG2 cells assessed as H2A.X phosphorylation at ser139 at 112.4 uM after 48 hrs by Western blot analysis (reference value: 1); type: functional
# [21] = system: RG2; experiment: Synergistic cytotoxicity against rat RG2 cells assessed as combination index at 112.4 uM after 48 hrs in presence of 206 uM TMZ by MTT assay; type: functional
# [22] = Synergistic cytotoxicity against rat CTX TNA2 cells assessed as synergistic effect index at 134.9 uM after 48 hrs in presence of 412.1 uM TMZ by MTT assay; type: cell-based; settings: ctx tna2, 48 h
# [23] = system: DBTRG-05MG; experiment: Induction of cell cycle arrest in human DBTRG-05MG cells assessed as accumulation at S phase at 112.4 uM after 48 hrs in presence of TMZ by propidium iodide staining based flow cytometric analysis (reference value: 22.76 +/- 1.56%); type: functional
# [24] = system: RG2; experiment: Induction of cell cycle arrest in rat RG2 cells assessed as accumulation at G2/M phase at 112.4 uM after 6 hrs in presence of TMZ by propidium iodide staining based flow cytometric analysis (reference value: 20.04 +/- 0.55%); type: functional
# [25] = system: RG2; experiment: Induction of apoptosis in rat RG2 cells assessed as cleaved caspace-9 expression at 112.4 uM after 48 hrs in presence of TMZ by Western blot analysis (reference value: 1); type: functional
# [26] = Inhibition of TMZ-induced drug resistance in rat RG2 cells assessed as CD133 expression at 112.4 uM after 48 hrs by Western blot analysis (reference value: 2.4); type: functional
# [27] = system: RG2; experiment: Induction of cell cycle arrest in rat RG2 cells assessed as accumulation at G2/M phase at 112.4 uM after 24 hrs in presence of TMZ by propidium iodide staining based flow cytometric analysis (reference value: 20.04 +/- 0.55%); type: functional
# [28] = system: RG2; experiment: Induction of apoptosis in rat RG2 cells assessed as Bax expression at 112.4 uM after 48 hrs in presence of TMZ by Western blot analysis (reference value: 1); type: functional
# [29] = system: RG2; experiment: Synergistic cytotoxicity against rat RG2 cells assessed as synergistic effect index at 112.4 uM after 48 hrs in presence of 515.1 uM TMZ by MTT assay; type: functional
# [30] = system: RG2; experiment: Induction of apoptosis in rat RG2 cells assessed as increase in apoptotic body formation at 112.4 uM after 48 hrs by TUNEL assay; type: functional, cell-based
# [31] = Effect on AKT expression in rat RG2 cells at 112.4uM after 48 hrs in presence of TMZ by Western blot analysis (reference value: 1); type: functional
# [32] = system: DBTRG-05MG; experiment: Induction of DNA damage in human DBTRG-05MG cells assessed as Chk1 phosphorylation at ser345 residues at 112.4 uM after 48 hrs by Western blot analysis (reference value: 1); type: functional
# [33] = system: DBTRG-05MG; experiment: Induction of cell cycle arrest in human DBTRG-05MG cells assessed as CDK2 expression at 112.4uM after 48 hrs by Western blot analysis (reference value: 1); type: functional
# [34] = Effect of MGMT expression in human DBTRG-05MG cells at 112.4 uM after 48 hrs by Western blot analysis (reference value: 1); type: functional
smiles,measurement,setting,value
Cn1nnc2c(C(N)=O)ncn2c1=O [TEMOZOLOMIDE],Activity,[1],26.97%
same,Activity,[2],31.03%
same,fold change (FC),[3],2.3
same,fold change (FC),[4],0.9
same,Activity,[5],Active
same,fold change (FC),[6],1
same,fold change (FC),[7],2
same,fold change (FC),[8],0.3
C[C@@H]1CC[C@H]2C(C)(C)[C@H]3C[C@@]12CC[C@@]3(C)O [CEDROL],fold change (FC),[9],1.1
same,CI,[10],1.11
same,Activity_index,[11],0.28
same,CI,[12],0.81
same,fold change (FC),[13],1.6
same,fold change (FC),[14],2.5
same,Activity_index,[15],0.56
same,CI,[16],0.57
same,fold change (FC),[17],1
same,fold change (FC),[18],0.9
same,Activity,[19],18.79%
same,fold change (FC),[20],1
same,CI,[21],0.79
same,Activity_index,[22],0.58
same,Activity,[23],20.58%
same,Activity,[24],19.39%
same,fold change (FC),[25],1.8
same,fold change (FC),[26],1.3
same,Activity,[27],26.19%
same,fold change (FC),[28],2.21
same,Activity_index,[29],0.83
same,Activity,[30],Active
same,fold change (FC),[31],0.4
same,fold change (FC),[32],0.9
same,fold change (FC),[33],0.7
same,fold change (FC),[34],0.8

# — ChEMBL document CHEMBL4699511, “Cedrol, a Sesquiterpene Alcohol, Enhances the Anticancer Efficacy of Temozolomide in Attenuating Drug Resistance via Regulation of the DNA Damage Response and MGMT Expression” (J Nat Prod, 2020)
